Data on 13 molecules can be found in US20260022142A1, “MACROCYCLIC IMMUNOMODULATORS” (Bristol-Myers Squibb Company, priority 2022, published 2026).

SMILES strings stand for the structures. pIC50: −log10 of the molar value. Bridge positions count the residues as written; N and C are the ends. Square brackets hold non-standard residues; d marks the D form. Peptide text beside a SMILES is read from it. * marks the point of attachment. Tyr(3,5-F2) = N[C@@H](Cc1cc(F)c(O)c(F)c1)C(=O)O; Ala(morpholin-4-yl) = N[C@@H](CN1CCOCC1)C(=O)O; Phe(4-CONH2) = NC(=O)c1ccc(C[C@H](N)C(=O)O)cc1; Phe(4-COOH) = N[C@@H](Cc1ccc(C(=O)O)cc1)C(=O)O; Phe(4-CH2NH2) = NCc1ccc(C[C@H](N)C(=O)O)cc1; Bip = N[C@@H](Cc1ccc(-c2ccccc2)cc1)C(=O)O; Phe(3-Me) = Cc1cccc(C[C@H](N)C(=O)O)c1; His(τ-Me) = Cn1cnc(C[C@H](N)C(=O)O)c1; Phe(2-Me) = Cc1ccccc1C[C@H](N)C(=O)O; His(π-Me) = Cn1cncc1C[C@H](N)C(=O)O; Cha = N[C@@H](CC1CCCCC1)C(=O)O; Cit = NC(=O)NCCC[C@H](N)C(=O)O; Carboxymethyl = O=C(O)C*; Orn = NCCC[C@H](N)C(=O)O; Aun = NCCCCCCCCCCC(=O)O; Dab = NCC[C@H](N)C(=O)O; Dap = NC[C@H](N)C(=O)O; AEEA = NCCOCCOCC(=O)O

T1 sequence (Q15116 25-288): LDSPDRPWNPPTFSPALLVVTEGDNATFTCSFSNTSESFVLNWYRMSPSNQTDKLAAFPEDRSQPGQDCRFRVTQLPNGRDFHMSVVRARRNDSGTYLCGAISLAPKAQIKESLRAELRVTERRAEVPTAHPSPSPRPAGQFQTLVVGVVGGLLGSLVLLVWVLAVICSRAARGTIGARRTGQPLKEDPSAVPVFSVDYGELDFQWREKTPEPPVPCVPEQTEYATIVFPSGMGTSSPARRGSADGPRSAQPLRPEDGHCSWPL

This assay has as its target T1, PD-1/PD-L1 interaction (PE-labeled human PD-L1-Ig binding to Jurkat cell line over-expressing human PD-1) (Homo sapiens, UniProt Q15116).
T1 construct: expressed in transfected cells; host or cells: Jurkat
The experiment in a line: Jurkat-PD-1 Cell Binding High-Content Screening Assay (CBA). Type of assay: cell-based. The conditions noted are these: Jurkat cell line over-expressing human PD-1; PE-labeled PD-L1-Ig 20 nM final; read-out: Jurkat hPD1-PDL1 IC50. The procedure, abridged:
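Binding of fluorescent PD-L1-Ig (20 nM final) to Jurkat-PD-1 cells was measured by automated imaging after 1 h, following a 2 h compound pre-treatment at 37° C.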
In general, pIC50 refers to the negative decadic logarithm of the IC50, by convention in mol/L. Take `CC(C)C[C@H]1NC(=O)[C@H](CCCN)NC(=O)[C@H](C(C)C)NC(=O)[C@H](Cc2ccc(-c3ccccc3)cc2)NC(=O)[C@H](C(C)C)NC(=O)[C@H](Cc2cc(F)c(O)c(F)c2)NC(=O)[C@H](CC(=O)O)NC(=O)[C@H](Cc2ccc(OCC(=O)O)cc2)NC(=O)[C@H](CN)NC(=O)CSC[C@@H](C(=O)N[C@@H](CCN)C(=O)NCCCCCCCCCCC(=O)O)NC(=O)[C@H](CCCCN)NC(=O)[C@H](C(C)C)NC(=O)[C@H](CC2CCCCC2)NC(=O)[C@H](CCN)NC1=O` [Compound 2032] ({CH2CO}-[Dap]Y(Carboxymethyl)D[Tyr(3,5-F2)]V[Bip]V[Orn][dL][Dab][Cha]VKC[Dab][Aun]-OH; thioether N-14): the pIC50 is 6.83.
With `CC(C)C[C@H]1NC(=O)[C@H](CCCN)NC(=O)[C@H](C(C)C)NC(=O)[C@H](Cc2ccc(-c3ccccc3)cc2)NC(=O)[C@H](C(C)C)NC(=O)[C@H](Cc2ccc(O)cc2)NC(=O)[C@H](CC(=O)O)NC(=O)[C@H](Cc2ccc(OCC(=O)O)cc2)NC(=O)[C@H](CN)NC(=O)CSC[C@@H](C(=O)N[C@@H](CCN)C(=O)NCCCCCCCCCCC(=O)O)NC(=O)[C@H](CCCCN)NC(=O)[C@H](C(C)C)NC(=O)[C@H](CC2CCCCC2)NC(=O)[C@H](CCN)NC1=O` [Compound 2033] ({CH2CO}-[Dap]Y(Carboxymethyl)DYV[Bip]V[Orn][dL][Dab][Cha]VKC[Dab][Aun]-OH; thioether N-14), the pIC50 is 7.53.
Then `Cc1cccc(C[C@@H]2NC(=O)[C@H](CC(=O)O)NC(=O)[C@H](Cc3ccc(OCC(=O)O)cc3)NC(=O)[C@H](Cc3cncn3C)NC(=O)CSC[C@@H](C(=O)N[C@@H](CCN)C(=O)NCCCCCCCCCCC(=O)O)NC(=O)[C@H]([C@@H](C)O)NC(=O)[C@H](C(C)C)NC(=O)[C@H](CC3CCCCC3)NC(=O)[C@H](CCN)NC(=O)[C@@H](CC(C)C)NC(=O)[C@H](CCCN)NC(=O)[C@H](CCCNC(N)=O)NC(=O)[C@H](Cc3ccc(-c4ccccc4)cc3)NC(=O)[C@H](C(C)C)NC2=O)c1` [Compound 2034] ({CH2CO}-[His(π-Me)]Y(Carboxymethyl)D[Phe(3-Me)]V[Bip][Cit][Orn][dL][Dab][Cha]VTC[Dab][Aun]-OH; thioether N-14), with 7.81; and `Cc1cccc(C[C@@H]2NC(=O)[C@H](CC(=O)O)NC(=O)[C@H](Cc3ccc(OCC(=O)O)cc3)NC(=O)[C@H](Cc3cncn3C)NC(=O)CSC[C@@H](C(=O)N[C@@H](CCN)C(=O)NCCCCCCCCCCC(=O)O)NC(=O)[C@H](CCCCN)NC(=O)[C@H](C(C)C)NC(=O)[C@H](CC3CCCCC3)NC(=O)[C@H](CCN)NC(=O)[C@@H](CC(C)C)NC(=O)[C@H](CCCN)NC(=O)[C@H](C(C)C)NC(=O)[C@H](Cc3ccc(-c4ccccc4)cc3)NC(=O)[C@H](C(C)C)NC2=O)c1` [Compound 2035] ({CH2CO}-[His(π-Me)]Y(Carboxymethyl)D[Phe(3-Me)]V[Bip]V[Orn][dL][Dab][Cha]VKC[Dab][Aun]-OH; thioether N-14), with 7.84; and `Cc1cccc(C[C@@H]2NC(=O)[C@H](CC(=O)O)NC(=O)[C@H](Cc3ccc(OCC(=O)O)cc3)NC(=O)[C@H](Cc3cn(C)cn3)NC(=O)CSC[C@@H](C(=O)N[C@@H](CCN)C(=O)NCCCCCCCCCCC(=O)O)NC(=O)[C@H]([C@@H](C)O)NC(=O)[C@H](C(C)C)NC(=O)[C@H](CC3CCCCC3)NC(=O)[C@H](CCN)NC(=O)[C@@H](CC(C)C)NC(=O)[C@H](CCCN)NC(=O)[C@H](CCCNC(N)=O)NC(=O)[C@H](Cc3ccc(-c4ccccc4)cc3)NC(=O)[C@H](C(C)C)NC2=O)c1` [Compound 2036] ({CH2CO}-[His(τ-Me)]Y(Carboxymethyl)D[Phe(3-Me)]V[Bip][Cit][Orn][dL][Dab][Cha]VTC[Dab][Aun]-OH; thioether N-14), with 7.84.
Then `Cc1cccc(C[C@@H]2NC(=O)[C@H](CC(=O)O)NC(=O)[C@H](Cc3ccc(OCC(=O)O)cc3)NC(=O)[C@H](Cc3cn(C)cn3)NC(=O)CSC[C@@H](C(=O)N[C@@H](CCN)C(=O)NCCCCCCCCCCC(=O)O)NC(=O)[C@H](CCCCN)NC(=O)[C@H](C(C)C)NC(=O)[C@H](CC3CCCCC3)NC(=O)[C@H](CCN)NC(=O)[C@@H](CC(C)C)NC(=O)[C@H](CCCN)NC(=O)[C@H](C(C)C)NC(=O)[C@H](Cc3ccc(-c4ccccc4)cc3)NC(=O)[C@H](C(C)C)NC2=O)c1` [Compound 2037] ({CH2CO}-[His(τ-Me)]Y(Carboxymethyl)D[Phe(3-Me)]V[Bip]V[Orn][dL][Dab][Cha]VKC[Dab][Aun]-OH; thioether N-14), with 7.77; and `Cc1cccc(C[C@@H]2NC(=O)[C@H](CC(=O)O)NC(=O)[C@H](Cc3ccc(OCC(=O)O)cc3)NC(=O)[C@H](CN3CCOCC3)NC(=O)CSC[C@@H](C(=O)N[C@@H](CCN)C(=O)NCCCCCCCCCCC(=O)O)NC(=O)[C@H]([C@@H](C)O)NC(=O)[C@H](C(C)C)NC(=O)[C@H](CC3CCCCC3)NC(=O)[C@H](CCN)NC(=O)[C@@H](CC(C)C)NC(=O)[C@H](CCCN)NC(=O)[C@H](CCCNC(N)=O)NC(=O)[C@H](Cc3ccc(-c4ccccc4)cc3)NC(=O)[C@H](C(C)C)NC2=O)c1` [Compound 2038] ({CH2CO}-[Ala(morpholin-4-yl)]Y(Carboxymethyl)D[Phe(3-Me)]V[Bip][Cit][Orn][dL][Dab][Cha]VTC[Dab][Aun]-OH; thioether N-14), with 7.41; and `Cc1cccc(C[C@@H]2NC(=O)[C@H](CC(=O)O)NC(=O)[C@H](Cc3ccc(OCC(=O)O)cc3)NC(=O)[C@H](CN3CCOCC3)NC(=O)CSC[C@@H](C(=O)N[C@@H](CCN)C(=O)NCCCCCCCCCCC(=O)O)NC(=O)[C@H](CCCCN)NC(=O)[C@H](C(C)C)NC(=O)[C@H](CC3CCCCC3)NC(=O)[C@H](CCN)NC(=O)[C@@H](CC(C)C)NC(=O)[C@H](CCCN)NC(=O)[C@H](C(C)C)NC(=O)[C@H](Cc3ccc(-c4ccccc4)cc3)NC(=O)[C@H](C(C)C)NC2=O)c1` [Compound 2039] ({CH2CO}-[Ala(morpholin-4-yl)]Y(Carboxymethyl)D[Phe(3-Me)]V[Bip]V[Orn][dL][Dab][Cha]VKC[Dab][Aun]-OH; thioether N-14), with 7.71.
Take `Cc1cccc(C[C@@H]2NC(=O)[C@H](CC(=O)O)NC(=O)[C@H](Cc3ccc(OCC(=O)O)cc3)NC(=O)[C@H](CN)NC(=O)CSC[C@@H](C(=O)N[C@@H](CCN)C(=O)NCCOCCOCC(=O)NCCCCCCCCCCC(=O)O)NC(=O)[C@H](CCCN)NC(=O)[C@H](C(C)C)NC(=O)[C@H](CC3CCCCC3)NC(=O)[C@H](CCN)NC(=O)[C@@H](CC(C)C)NC(=O)[C@H](CCCN)NC(=O)[C@H](Cc3ccccc3)NC(=O)[C@H](Cc3ccc(-c4ccccc4)cc3)NC(=O)[C@H](Cc3ccc(O)cc3)NC2=O)c1` [Compound 2041] ({CH2CO}-[Dap]Y(Carboxymethyl)D[Phe(3-Me)]Y[Bip]F[Orn][dL][Dab][Cha]V[Orn]C[Dab][AEEA][Aun]-OH; thioether N-14): the pIC50 was 8.09.
Next, `Cc1cccc(C[C@@H]2NC(=O)[C@H](CC(=O)O)NC(=O)[C@H](Cc3ccc(OCC(=O)O)cc3)NC(=O)[C@H](CN)NC(=O)CSC[C@@H](C(=O)N[C@@H](CCN)C(=O)NCCOCCOCC(=O)NCCCCCCCCCCC(=O)O)NC(=O)[C@H](CCCN)NC(=O)[C@H](C(C)C)NC(=O)[C@H](CC3CCCCC3)NC(=O)[C@H](CCN)NC(=O)[C@@H](CC(C)C)NC(=O)[C@H](CCCN)NC(=O)[C@H](Cc3ccc(C(=O)O)cc3)NC(=O)[C@H](Cc3ccc(-c4ccccc4)cc3)NC(=O)[C@H](Cc3ccc(O)cc3)NC2=O)c1` [Compound 2042] ({CH2CO}-[Dap]Y(Carboxymethyl)D[Phe(3-Me)]Y[Bip][Phe(4-COOH)][Orn][dL][Dab][Cha]V[Orn]C[Dab][AEEA][Aun]-OH; thioether N-14): 8.30; `Cc1cccc(C[C@@H]2NC(=O)[C@H](CC(=O)O)NC(=O)[C@H](Cc3ccc(OCC(=O)O)cc3)NC(=O)[C@H](CN)NC(=O)CSC[C@@H](C(=O)N[C@@H](CCN)C(=O)NCCOCCOCC(=O)NCCCCCCCCCCC(=O)O)NC(=O)[C@H](CCCN)NC(=O)[C@H](C(C)C)NC(=O)[C@H](CC3CCCCC3)NC(=O)[C@H](CCN)NC(=O)[C@@H](CC(C)C)NC(=O)[C@H](CCCN)NC(=O)[C@H](Cc3ccc(C(N)=O)cc3)NC(=O)[C@H](Cc3ccc(-c4ccccc4)cc3)NC(=O)[C@H](Cc3ccc(O)cc3)NC2=O)c1` [Compound 2045] ({CH2CO}-[Dap]Y(Carboxymethyl)D[Phe(3-Me)]Y[Bip][Phe(4-CONH2)][Orn][dL][Dab][Cha]V[Orn]C[Dab][AEEA][Aun]-OH; thioether N-14): 8.14; `Cc1cccc(C[C@@H]2NC(=O)[C@H](CC(=O)O)NC(=O)[C@H](Cc3ccc(OCC(=O)O)cc3)NC(=O)[C@H](CN)NC(=O)CSC[C@@H](C(=O)N[C@@H](CCN)C(=O)NCCOCCOCC(=O)NCCCCCCCCCCC(=O)O)NC(=O)[C@H](CCCN)NC(=O)[C@H](C(C)C)NC(=O)[C@H](CC3CCCCC3)NC(=O)[C@H](CCN)NC(=O)[C@@H](CC(C)C)NC(=O)[C@H](CCCN)NC(=O)[C@H](Cc3ccc(CN)cc3)NC(=O)[C@H](Cc3ccc(-c4ccccc4)cc3)NC(=O)[C@H](Cc3ccc(O)cc3)NC2=O)c1` [Compound 2046] ({CH2CO}-[Dap]Y(Carboxymethyl)D[Phe(3-Me)]Y[Bip][Phe(4-CH2NH2)][Orn][dL][Dab][Cha]V[Orn]C[Dab][AEEA][Aun]-OH; thioether N-14): 8.01.
Then `Cc1cccc(C[C@@H]2NC(=O)[C@H](CC(=O)O)NC(=O)[C@H](Cc3ccc(OCC(=O)O)cc3)NC(=O)[C@H](CN)NC(=O)CSC[C@@H](C(=O)N[C@@H](CCN)C(=O)NCCOCCOCC(=O)NCCCCCCCCCCC(=O)O)NC(=O)[C@H](CCCN)NC(=O)[C@H](C(C)C)NC(=O)[C@H](CC3CCCCC3)NC(=O)[C@H](CCN)NC(=O)[C@@H](CC(C)C)NC(=O)[C@H](CCCN)NC(=O)[C@H](Cc3ccccc3C)NC(=O)[C@H](Cc3ccc(-c4ccccc4)cc3)NC(=O)[C@H](Cc3ccc(O)cc3)NC2=O)c1` [Compound 2048] ({CH2CO}-[Dap]Y(Carboxymethyl)D[Phe(3-Me)]Y[Bip][Phe(2-Me)][Orn][dL][Dab][Cha]V[Orn]C[Dab][AEEA][Aun]-OH; thioether N-14), with 7.91.
